Assay results as given in PubChem BioAssay AID328 (DTP/NCI, 2004).
“And” between values parts separate entries of the source, which are not always exact repeats. Identical values can stand only once. Inconclusive results and toxic doses are left out. Starred links: 1 amine or outer side, 2 acyl side, 3 side chain; linkers in the order of their positions; H or OH if unused. Positions of bridges follow the written chain, without caps; N, C: chain ends. Non-standard residues stand in square brackets, D forms with d. Residues, ends and D or L forms follow the SMILES beside them. Chains are numbered I, II in the order given. Actinocin(9to1) = Cc1c2oc3c(C)ccc(C(=O)[*:1])c3nc-2c(C(=O)[*:2])c(N)c1=O; NMeV = CN[CH](C(=O)O)C(C)C; Aze = O=C(O)[CH]1CCN1; Sar = CNCC(=O)O

Tested on: BDF1 mice, P388 leukemia ip, median survival T/C
Assay: NCI In Vivo Anticancer Drug Screen. Data for tumor model P388 Leukemia (intraperitoneal) in B6D2F1 (BDF1) mice
Conditions: endpoint: median survival time, higher = longer survival
Summary of the method: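 Survival ratio, drug arm over vehicle arm, in mice with a transplanted tumour.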

[1] = dose: 100.0 mg/kg/injection, schedule: Q04DX003 (ip), vehicle: Klucel (hydroxypropylcellulose) (HPC)
[2] = dose: 200.0 mg/kg/injection, schedule: Q04DX003 (ip), vehicle: Klucel (hydroxypropylcellulose) (HPC)
[3] = dose: 400.0 mg/kg/injection, schedule: Q04DX003 (ip), vehicle: Klucel (hydroxypropylcellulose) (HPC)
[4] = dose: 100.0 mg/kg/injection, schedule: Q04DX003 (ip), vehicle: saline sonified
[5] = dose: 6.25 mg/kg/injection, schedule: Q01DX009 (ip), vehicle: saline with Tween-80
[6] = dose: 25.0 mg/kg/injection, schedule: Q01DX009 (ip), vehicle: saline with Tween-80
[7] = dose: 50.0 mg/kg/injection, schedule: Q01DX009 (ip), vehicle: saline with Tween-80
[8] = dose: 100.0 mg/kg/injection, schedule: Q04DX002 (ip), vehicle: saline with Tween-80
[9] = dose: 200.0 mg/kg/injection, schedule: Q04DX002 (ip), vehicle: saline with Tween-80

Cc1c2oc3c(C)ccc(C(=O)NC4C(=O)NC(C(C)C)C(=O)N5CCC5C(=O)N(C)CC(=O)N(C)C(C(C)C)C(=O)OC4C)c3nc-2c(C(=O)NC2C(=O)NC(C(C)C)C(=O)N3CCC3C(=O)N(C)CC(=O)N(C)C(C(C)C)C(=O)OC2C)c(N)c1=O (configuration not stated) (I: TV[Aze][Sar][NMeV] / II: TV[Aze][Sar][NMeV]; ester I:1-I:C, II:1-II:C; linker I:N-II:N via Actinocin(9to1); configuration not given here)
T/C (dose: 0.26 mg/kg/injection, schedule: Q04DX003 (ip), vehicle: saline): 226 % of control
T/C (dose: 0.4 mg/kg/injection, schedule: Q04DX003 (ip), vehicle: saline): 180 % of control
T/C (dose: 0.6 mg/kg/injection, schedule: Q04DX003 (ip), vehicle: saline): 319 % of control
T/C (dose: 12.5 micrograms/kg/injection, schedule: Q01DX009 (ip), vehicle: saline + alcohol): 190 % of control
T/C (dose: 25.0 micrograms/kg/injection, schedule: Q01DX009 (ip), vehicle: saline + alcohol): 197 % of control
T/C (dose: 50.0 micrograms/kg/injection, schedule: Q01DX009 (ip), vehicle: saline + alcohol): 239 % of control
T/C (dose: 75.0 micrograms/kg/injection, schedule: Q01DX009 (ip), vehicle: saline + alcohol): 237 % of control
T/C (dose: 100.0 micrograms/kg/injection, schedule: Q01DX009 (ip), vehicle: saline + alcohol): 260 % of control
T/C (dose: 112.5 micrograms/kg/injection, schedule: Q01DX009 (ip), vehicle: saline + alcohol): 274 % of control
T/C (dose: 150.0 micrograms/kg/injection, schedule: Q01DX009 (ip), vehicle: saline + alcohol): 274 % of control
T/C (dose: 150.0 micrograms/kg/injection, schedule: Q04DX003 (ip), vehicle: saline + alcohol): 218 % of control
T/C (dose: 200.0 micrograms/kg/injection, schedule: Q01DX009 (ip), vehicle: saline + alcohol): 166 % of control
T/C (dose: 216.0 micrograms/kg/injection, schedule: Q04DX003 (ip), vehicle: saline + alcohol): 207 % of control
T/C (dose: 225.0 micrograms/kg/injection, schedule: Q01DX009 (ip), vehicle: saline + alcohol): 108 % of control
T/C (dose: 225.0 micrograms/kg/injection, schedule: Q04DX003 (ip), vehicle: saline + alcohol): 212 % of control
T/C (dose: 300.0 micrograms/kg/injection, schedule: Q01DX009 (ip), vehicle: saline + alcohol): 113 % of control
T/C (dose: 360.0 micrograms/kg/injection, schedule: Q04DX003 (ip), vehicle: saline + alcohol): 225 % of control
T/C (dose: 450.0 micrograms/kg/injection, schedule: Q04DX003 (ip), vehicle: saline + alcohol): 238 % of control and 336 % of control
T/C (dose: 900.0 micrograms/kg/injection, schedule: Q04DX003 (ip), vehicle: saline + alcohol): 88 % of control and 117 % of control
T/C (dose: 1000.0 micrograms/kg/injection, schedule: Q04DX003 (ip), vehicle: saline + alcohol): 97 % of control
T/C (dose: 1200.0 micrograms/kg/injection, schedule: Q04DX003 (ip), vehicle: saline + alcohol): 102 % of control

COC(OC)c1cc(=O)[nH]c(NC(=O)C(Cl)Cl)n1
T/C (dose: 100.0 mg/kg/injection, schedule: Q04DX003 (ip), vehicle: saline with Tween-80): 112 % of control
T/C (dose: 200.0 mg/kg/injection, schedule: Q04DX003 (ip), vehicle: saline with Tween-80): 95 % of control
T/C (dose: 400.0 mg/kg/injection, schedule: Q04DX003 (ip), vehicle: saline with Tween-80): 104 % of control

C/C=C(/Cl)c1c(C)cc(C)c(CC(=O)O)c1C
T/C [1]: 87 % of control
T/C [2]: 95 % of control
T/C [3]: 95 % of control

O=C(O)c1ccccc1O.O=C(O)c1ccccc1O.[O]=[V]
T/C (dose: 8.0 mg/kg/injection, schedule: Q01DX010 (ip), vehicle: carboxymethylcellulose (CMC)): 90 % of control
T/C (dose: 16.0 mg/kg/injection, schedule: Q01DX010 (ip), vehicle: carboxymethylcellulose (CMC)): 100 % of control

COc1ccc2c(c1)NC(=O)C2(C)SC (configuration not stated)
T/C (dose: 12.5 mg/kg/injection, schedule: Q04DX003 (ip), vehicle: saline with Tween-80): 103 % of control
T/C (dose: 25.0 mg/kg/injection, schedule: Q04DX003 (ip), vehicle: saline with Tween-80): 97 % of control
T/C (dose: 50.0 mg/kg/injection, schedule: Q04DX003 (ip), vehicle: saline with Tween-80): 106 % of control

Cc1ccc2c(c1)Sc1ccc3ccccc3c1N2
T/C [4]: 113 % of control
T/C (dose: 200.0 mg/kg/injection, schedule: Q04DX003 (ip), vehicle: saline sonified): 90 % of control
T/C (dose: 400.0 mg/kg/injection, schedule: Q04DX003 (ip), vehicle: saline sonified): 100 % of control

O=C1CCS(=O)(=O)c2ccccc21
T/C [5]: 101 % of control
T/C (dose: 12.5 mg/kg/injection, schedule: Q01DX009 (ip), vehicle: saline with Tween-80): 117 % of control
T/C [6]: 105 % of control
T/C [7]: 98 % of control

COc1ccc(N2c3ccccc3-c3cc[nH]c(=O)c3[C@H]2O)cc1OC
T/C (dose: 37.5 mg/kg/injection, schedule: Q01DX009 (ip), vehicle: Klucel (hydroxypropylcellulose) (HPC)): 119 % of control
T/C (dose: 75.0 mg/kg/injection, schedule: Q01DX006 (ip), vehicle: Klucel (hydroxypropylcellulose) (HPC)): 114 % of control
T/C (dose: 75.0 mg/kg/injection, schedule: Q01DX009 (ip), vehicle: Klucel (hydroxypropylcellulose) (HPC)): 106 % of control
T/C (dose: 150.0 mg/kg/injection, schedule: Q01DX009 (ip), vehicle: Klucel (hydroxypropylcellulose) (HPC)): 163 % of control

O=C1OC(=C(c2ccccc2)c2ccccc2)c2ccccc21
T/C (dose: 50.0 mg/kg/injection, schedule: Q01DX009 (ip), vehicle: Klucel (hydroxypropylcellulose) (HPC)): 100 % of control
T/C (dose: 100.0 mg/kg/injection, schedule: Q01DX009 (ip), vehicle: Klucel (hydroxypropylcellulose) (HPC)): 100 % of control
T/C (dose: 200.0 mg/kg/injection, schedule: Q01DX009 (ip), vehicle: Klucel (hydroxypropylcellulose) (HPC)): 100 % of control

COc1ccc(NC(C)=O)c(/C=N/Nc2ccc([N+](=O)[O-])cc2[N+](=O)[O-])c1
T/C (dose: 50.0 mg/kg/injection, schedule: Q04DX002 (ip), vehicle: saline with Tween-80): 89 % of control
T/C [8]: 106 % of control
T/C [9]: 106 % of control

CS(=O)(=O)Nc1ccc(Nc2c3ccccc3nc3cc(Cl)ccc23)cc1
T/C (dose: 9.6 mg/kg/injection, schedule: Q04DX003 (ip), vehicle: Klucel (hydroxypropylcellulose) (HPC)): 100 % of control
T/C (dose: 14.0 mg/kg/injection, schedule: Q04DX003 (ip), vehicle: Klucel (hydroxypropylcellulose) (HPC)): 104 % of control
T/C (dose: 132.0 mg/kg/injection, schedule: Q04DX003 (ip), vehicle: saline): 260 % of control and 195 % of control
T/C (dose: 200.0 mg/kg/injection, schedule: Q04DX003 (ip), vehicle: saline): 272 % of control and 205 % of control
T/C (dose: 300.0 mg/kg/injection, schedule: Q04DX003 (ip), vehicle: saline): 259 % of control

CN1CCN(C(=O)Nc2ccc(N=Nc3ccccc3)cc2)CC1
T/C (dose: 4.16 mg/kg/injection, schedule: Q01DX009 (ip), vehicle: saline with Tween-80): 100 % of control
T/C [5]: 90 % of control
T/C (dose: 9.38 mg/kg/injection, schedule: Q01DX009 (ip), vehicle: saline with Tween-80): 90 % of control
T/C (dose: 50.0 mg/kg/injection, schedule: Q04DX003 (ip), vehicle: saline sonified): 95 % of control
T/C [4]: 100 % of control

COc1cc2c(cc1OC)C(c1ccc(N=Cc3ccc(N(C)C)cc3)cc1)N(C(=S)Nc1cc(Cl)ccc1Cl)CC2 (configuration not stated)
T/C [6]: 97 % of control
T/C [7]: 93 % of control and 97 % of control
T/C (dose: 100.0 mg/kg/injection, schedule: Q01DX009 (ip), vehicle: saline with Tween-80): 95 % of control
T/C (dose: 200.0 mg/kg/injection, schedule: Q01DX009 (ip), vehicle: saline with Tween-80): 89 % of control

Cc1ccc(C=C(C(=O)CCN(C)C)C(=O)CCN(C)C)cc1
T/C (dose: 50.0 mg/kg/injection, schedule: Q01DX005 (ip), vehicle: saline): 87 % of control
T/C (dose: 100.0 mg/kg/injection, schedule: Q01DX005 (ip), vehicle: saline): 109 % of control
T/C (dose: 200.0 mg/kg/injection, schedule: Q01DX005 (ip), vehicle: saline): 119 % of control

O=C(c1ccccc1)C1C(c2ccccc2)N1CCl (configuration not stated)
T/C [1]: 113 % of control
T/C [2]: 100 % of control
T/C [3]: 100 % of control

O=C1CC2(C(=O)N1CN(Cc1ccccc1)Cc1ccccc1)c1ccccc1-c1ccccc12
T/C [8]: 87 % of control
T/C [9]: 86 % of control
T/C (dose: 400.0 mg/kg/injection, schedule: Q04DX002 (ip), vehicle: saline with Tween-80): 93 % of control
